US8703938B2, “Hepatitis C virus inhibitors” (Enanta Pharmaceuticals, Inc., priority 2009, dated 2014)

Tested on: HCV 1b genotype replicon
Assay: HCV genotype-1b replicon assay (qRT-PCR or luciferase)
Assay type: cell-based
Conditions: Hepatitis C virus, read-out: Genotype-1b replicon EC50 Range
Description: HCV replicon cell lines (kindly provided by R. Bartenschlager) isolated from colonies as described by Lohman et. al. (Lohman et al. (1999) Science 285: 110-113, expressly incorporated by reference in its entirety) and used for all experiments. The HCV replicon has the nucleic acid sequence set forth in EMBL Accession No.: AJ242651, the coding sequence of which is from nucleotides 1801 to 8406.
The coding sequence of the published HCV replicon was synthesized and subsequently assembled in a modified plasmid pBR322 (Promega, Madison, Wis.) using standard molecular biology techniques. […]
EC50 values of single agent compounds and combinations were determined by HCV RNA detection using quantitative RT-PCR, according to the manufacturer's instructions, with a TAQMAN® One-Step RT-PCR Master Mix Reagents Kit (Cat # AB 4309169, Applied Biosystems) on an ABI Model 7500 thermocycler. The TaqMan primers used for detecting and quantifying HCV RNA were obtained from Integrated DNA Technologies. HCV RNA was normalized to GAPDH RNA levels in drug-treated cells, which was detected and quantified using the Human GAPDH Endogenous Control Mix (Applied Biosystems, AB 4310884E). […] Chemical agent cytotoxicity was evaluated using an MTS assay according to the manufacturer's directions (Promega). […]

Question: Which EC50 does the source give for COC(=O)N[C@H](C(=O)N1CCC(C(=O)Nc2ccc(-c3ccc(NC(=O)C4CCN(C(=O)[C@@H](NC(=O)OC)C(C)C)C4)cc3)cc2)C1)C(C)C (stereo partly shown) [Example 295] here?
Answer: > 10 nM
